Assays:
Panc-10.5 = test: WST-1 proliferation assay, Panc-10.5; type: cell-based; conditions: Homo sapiens; PANC - 10.5, 0.05 μM
MDA-MB-438 = test: WST-1 proliferation assay, MDA-MB-438; type: cell-based; conditions: Homo sapiens; MDA-MB-438, 0.05 μM
DAUDI = test: WST-1 proliferation assay, DAUDI; type: cell-based; conditions: Homo sapiens; Burkitt's lymphoma DAUDI; read-out: Anti-proliferative activity IC50 (μM) ± SD
Procedure: (§1) All the cancer cell lines were maintained in cultured in DMEM GlutaMAX™ (GIBCO Invitrogen, France, cat no 31966047) enhanced with 10% foetal bovine serum (GIBCO Invitrogen, France, cat no 10270-106) and 1% penicillin G/streptomycin (GIBCO Invitrogen, France, cat no 15140-122). Only Panc-10.5 cells were cultivated in RPMI 1640 medium (Gibco) supplemented with 2 mM L-glutamine, 1.5 g/L sodium bicarbonate, 4.5 g/L glucose, 10 mM HEPES, 1 mM sodium pyruvate, 10 Units/ml human insulin, […] (SVF): 15% (75 ml in 500 ml of medium).
(§2) Cells were grown as subconfluent monolayer and cultured in 75 cm^2 flasks at 37° C., 5% CO2 in a humidified atmosphere, and medium was changed every two days. […]
(§3) The cell proliferation WST-1 assay is a colorimetric assay for the quantification of cell proliferation and viability, based on the enzymatic cleavage of the tetrazolium salt WST-1 added to the culture medium, to a water soluble colored formazan dye, detected by absorbance at 450 nm, by mitochondrial succinate-tetrazolium reductase in viable cells. […]
(§4) After an incubation period of 72 h, at day 4, were prepared the 19 ml medium with reagent WST-1 1 ml ([…]). […] The cells were incubated at 37° C. in a humidified atmosphere of 5% CO2 for 1 h 30 and the absorbance at 450-655 nm was measured by Microplate Manager 5.2 (Bio-Rad).

VAL = test: WST-1 proliferation assay, VAL; type: cell-based; conditions: Homo sapiens; B lymphoma VAL; read-out: Anti-proliferative activity IC50 (μM) ± SD
Procedure: as §1, §2, §3, §4

LNCaP = test: WST-1 proliferation assay, LNCaP; type: cell-based; conditions: Homo sapiens; Prostate LNCaP, 72 h; read-out: Anti-proliferative activity IC50 (μM) ± SD
Text: Several cancer cell lines were used: breast cancer cells (MDA-MB-231 (ATTCC® Number HTB-26™), MDA-MB-436 (ATTCC® Number HTB-130™), MDA-MB-438, BT-474 (ATTCC® Number HTB-20™)); cervical cancer cells (HeLa (ATTCC® Number CCL-2™)); colon cancer cells (HCT-116 (ATTCC® Number CCL-247™) and HT-29 (ATTCC® Number HTB-38™)); osteosarcoma cells (U2OS (ATTCC® Number HTB-96™)); pancreas cancer cells (MIA PaCa-2 (ATTCC® Number CRL-1420™) and Panc-10.5 (ATTCC® Number CRL-2547™)); prostate cancer cells (PC-3 (ATTCC® Number CRL-1435™) and LNCaP (ATTCC® Number CRL-1740™)); brain cancer cells (U87 glioblastoma (ATTCC® Number HTB-14™) and SH-SYSY neuroblastoma (ATTCC® Number CRL-2266™)). […]
After observation of cells under the microscope, old media were removed and the adherent cells washed gently twice with PBS (Phosphate Buffer Saline, —Ca^2+, —Mg^2+, Lonza cat no: 17-512F/12). […] 50 μl of this solution were transferred in 20 μl of isotonic solution and the cells were counted by count cellular (Beckman Coulter). […]
as §3

MDA-MB-231 = test: WST-1 proliferation assay, MDA-MB-231; type: cell-based, Human; conditions: for IC50: Homo sapiens, Breast MDA-MB-231, 72 h, read-out: Anti-proliferative activity IC50 (μM) ± SD; for effect on anti-proliferative effect of 5-FU: MDA-MB-231, combination with 5-FU, 72 hours (FIG. 7); for cytotoxicity for cancer cells in vitro: MDAMB-231 cell survival, FIGS. 1A-C
Procedure: Cells were grown as subconfluent monolayer and cultured in 75 cm^2 flasks at 37° C., 5% CO2 in a humidified atmosphere, and medium was changed every two days. Only cells from passages 2-6 were used for the experiments.
All cells were detached with 3 ml of trypsin/EDTA (chelator of calcium and magnesium ions) (Lonza), incubated for 5 min at 37° C., and examined using a microscope to ensure that the cells were detached and floating. […] The supernatant was removed and the cell pellet resuspended in […] of culture medium. 50 μl of this solution were transferred in 20 μl of isotonic solution and the cells were counted by count cellular (Beckman Coulter).
The cell proliferation WST-1 assay is a colorimetric assay for the quantification of cell proliferation and viability, based on the enzymatic cleavage of the tetrazolium salt WST-1 added to the culture medium, to a water soluble colored formazan dye, detected by absorbance at 450 nm, by mitochondrial succinate-tetrazolium reductase in viable cells. An augmentation in enzyme activity will then lead to an increase in the amount of formazan dye formed, which directly correlates to the number of metabolically active cells in the culture.
After an incubation period of 72 h, at day 4, were prepared the […] medium with reagent WST-1 […] ([…]). The medium was removed from the 96 microplate and 200 μl of solution WST-1/medium were added for each well. The cells were incubated at 37° C. in a humidified atmosphere of 5% CO2 for 1 h 30 and the absorbance at 450-655 nm was measured by Microplate Manager 5.2 (Bio-Rad).

SMILES | inhibition at 0.05 µM (Panc-10.5) | inhibition at 0.05 µM (MDA-MB-438) | IC50 (DAUDI) | IC50 (VAL) | IC50 (LNCaP) | IC50 (MDA-MB-231) | effect on anti-proliferative effect of 5-FU (MDA-MB-231) | cytotoxicity for cancer cells in vitro (MDA-MB-231)
Cc1ccc(-c2nc3ccccc3[nH]2)cc1NC(=S)NC(=O)c1ccc2c(c1)OCCO2 [Compound 1, N-[5-(1H-benzimidazol-2-yl)-2-methylphenyl]-N′-(2,3-dihydro-1,4-benzodioxin-6-ylcarbonyl)thiourea] | 18% | 2% | 1 µM | 1.8 ± 0.04 µM | 1.4 ± 0.13 µM | 0.6 ± 0.03 µM | increase the anti-proliferative effect of 5-FU | cytotoxic
O=C(NC(=S)Nc1cccc(-c2nc3ccccc3[nH]2)c1)c1ccc2c(c1)OCCO2 [Compound 2, N-[3-(1H-benzimidazol-2-yl)phenyl]-N′-(2,3-dihydro-1,4-benzodioxin-6-ylcarbonyl)thiourea] | 35% | 13% | 0.5 ± 0.02 µM | 1 µM | 1.3 ± 0.15 µM | 0.4 ± 0.02 µM | increase the anti-proliferative effect of 5-FU | cytotoxic

— US20130041005A1, “PHARMACEUTICAL COMPOSITIONS COMPRISING NEUROPILIN INHIBITORS, AND THEIR USE FOR THE PREVENTION AND/OR TREATMENT OF ANGIOGENIC DISORDERS AND CANCERS” (TRAGEX PHARMA, priority 2011, published 2013)
